What was measured:
Assay type in all cases: cell-based
[1] = target: T1, hM3 receptor (Homo sapiens, UniProt P20309); assay: Blockade of agonist-mediated calcium release via FLIPR (Assay C); details: CHO cells stably expressing hM3
T1 construct: expressed in transfected cells; host or cells: CHO
Experimental: (§1) In this functional assay, the functional potency of a test compound as an antagonist of hM1, hM3 and […] receptors was determined by measuring the ability of the test compound to inhibit agonist-mediated increases in intracellular calcium.
(§2) CHO cells stably expressing the receptors were seeded into 96-well FLIPR plates the night before the assay was done. Seeded cells were washed twice with FLIPR buffer (10 mM HEPES, pH 7.4, 2 mM calcium chloride, 2.5 mM probenecid in Hank's Buffered Salt Solution (HBSS) without calcium and magnesium) using Cellwash (MTX Labsystems, Inc.) to remove growth media. After washing, each well contained 50 μL of FLIPR buffer. The cells were then incubated with 50 μL/well of 4 μM FLUO-4AM (a 2× solution was made) for 40 minutes at 37° C., 5% carbon dioxide. Following the dye incubation period, cells were washed two times with FLIPR buffer, leaving a final volume of 50 μL in each well.
(§3) The dose-dependent stimulation of intracellular Ca^2+ release for oxotremorine was determined so that the test compound could be measured against oxotremorine stimulation at an EC90 concentration. Cells were first incubated with compound dilution buffer for 20 minutes and then oxotremorine was added. […]
(§4) The parameters used for the FLIPR were: exposure length of 0.4 seconds, laser strength of 0.5 watts, excitation wavelength of 488 nm, and emission wavelength of 550 nm. Baseline was determined by measuring the change in fluorescence for 10 seconds prior to addition of oxotremorine. Following oxotremorine stimulation, the FLIPR continuously measured the change of fluorescence every 0.5 to 1 second for 1.5 minutes to capture the maximum fluorescence change.
(§5) The change of fluorescence was expressed as maximum fluorescence minus baseline fluorescence for each well. The raw data was analyzed against the logarithm of test compound concentration by nonlinear regression with GraphPad Prism (GraphPad Software, Inc., San Diego, Calif.) using the built-in model for sigmoidal dose-response. […]

[2] = tested on: cM5 receptor; assay: as above; details: CHO cells stably expressing cM5
Experimental: as §1, §2, §3, §4, §5

[3] = target: T2, hM2 receptor (Homo sapiens, UniProt P08172); assay: Blockade of agonist-mediated inhibition of cAMP accumulation (Assay A); details: CHO-K1 cells expressing the hM2 receptor
T2 construct: expressed in transfected cells; host or cells: CHO / CHO-K1
T2 sequence (P08172 1-466): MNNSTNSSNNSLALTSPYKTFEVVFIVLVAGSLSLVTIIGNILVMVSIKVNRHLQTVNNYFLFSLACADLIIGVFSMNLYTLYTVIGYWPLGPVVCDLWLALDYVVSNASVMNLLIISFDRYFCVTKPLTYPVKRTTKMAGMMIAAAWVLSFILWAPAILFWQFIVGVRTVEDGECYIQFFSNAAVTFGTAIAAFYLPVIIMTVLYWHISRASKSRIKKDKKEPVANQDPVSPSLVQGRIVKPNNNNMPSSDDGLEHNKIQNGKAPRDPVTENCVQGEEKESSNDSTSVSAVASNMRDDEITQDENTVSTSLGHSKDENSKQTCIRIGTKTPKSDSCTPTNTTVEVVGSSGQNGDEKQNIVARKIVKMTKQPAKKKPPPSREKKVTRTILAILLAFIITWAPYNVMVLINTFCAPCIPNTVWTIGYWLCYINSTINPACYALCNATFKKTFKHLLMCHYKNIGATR
Experimental: In this assay, the functional potency of a test compound as an antagonist for the hM2 receptor was determined by measuring the ability of the test compound to block oxotremorine-inhibition of forskolin-mediated cAMP accumulation in CHO-K1 cells expressing the hM2 receptor. cAMP assays were performed in a radioimmunoassay format using the Flashplate Adenylyl Cyclase Activation Assay System with ^125I-cAMP (NEN SMP004B, PerkinElmer Life Sciences Inc., Boston, Mass.), according to the manufacturer's instructions. Cells were rinsed once with dPBS and lifted with Trypsin-EDTA solution (0.05% trypsin/0.53 mM EDTA) as described in the Cell Culture and Membrane Preparation section above. The detached cells were washed twice by centrifugation at 650×g for five minutes in 50 mL dPBS. The cell pellet was then re-suspended in 10 mL dPBS, and the cells were counted with a Coulter Z1 Dual Particle Counter (Beckman Coulter, Fullerton, Calif.). […]
Reactions were incubated for 10 minutes at 37° C. and stopped by addition of 100 μL ice-cold detection buffer. Plates were sealed, incubated overnight at room temperature and counted the next morning on a PerkinElmer TopCount liquid scintillation counter (PerkinElmer Inc., Wellesley, Mass.). The amount of cAMP produced (pmol/well) was calculated based on the counts observed for the samples and cAMP standards, as described in the manufacturer's user manual. […]

T1 sequence (P20309 whole entry): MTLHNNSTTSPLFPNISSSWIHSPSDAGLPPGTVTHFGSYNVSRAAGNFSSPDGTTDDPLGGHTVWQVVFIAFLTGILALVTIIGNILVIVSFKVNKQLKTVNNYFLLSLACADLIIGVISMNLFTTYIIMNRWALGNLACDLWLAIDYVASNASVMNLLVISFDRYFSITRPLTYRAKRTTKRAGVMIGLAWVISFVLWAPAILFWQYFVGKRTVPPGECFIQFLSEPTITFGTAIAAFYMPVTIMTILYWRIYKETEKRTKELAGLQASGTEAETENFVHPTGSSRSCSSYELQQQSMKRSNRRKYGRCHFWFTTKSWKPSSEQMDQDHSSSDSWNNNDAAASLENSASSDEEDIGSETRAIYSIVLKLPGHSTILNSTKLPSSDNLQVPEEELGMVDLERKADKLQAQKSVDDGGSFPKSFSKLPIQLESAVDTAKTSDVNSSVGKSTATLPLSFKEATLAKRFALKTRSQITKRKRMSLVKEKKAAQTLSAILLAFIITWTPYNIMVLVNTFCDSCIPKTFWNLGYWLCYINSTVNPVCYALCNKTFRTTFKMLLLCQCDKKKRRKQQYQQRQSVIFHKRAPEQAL

Cc1cc(NC(=O)CCN2CCC(OC(=O)Nc3ccccc3-c3ccccc3)CC2)c(C)cc1CNC[C@H](O)c1ccc(O)c(NC=O)c1 [compound of formula I, biphenyl-2-ylcarbamic acid 1-[2-(4-{[(R)-2-(3-formylamino-4-hydroxyphenyl)-2-hydroxyethylamino]methyl}-2,5-dimethylphenylcarbamoyl)ethyl]-piperidin-4-yl ester]
less than 10 nM: Kobs for blockade of agonist-mediated calcium release [1] | Kobs for blockade of agonist-mediated calcium release [2] | Kobs for blockade of oxotremorine-inhibition of forskolin-mediated cAMP accumulation [3]
